From PubChem BioAssay (NCI)
“And” between values parts separate entries of the source, which are not always exact repeats. Equal values may be shown once.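 Where inhibition never reached the appropriate level, the endpoint shown equals the highest concentration tested. Otherwise, values were interpolated linearly from a five-concentration, 48-hour dose response in 96-well plates. GI50 marks 50% less growth. TGI is the concentration that stops growth completely.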

How the values were obtained:
Test in all cases: DTP human tumour cell line panel, 48 h
HT29 colon = tested on: HT29 colon
UO-31 renal = tested on: UO-31 renal
SK-MEL-28 melanoma = tested on: SK-MEL-28 melanoma
LOX IMVI melanoma = tested on: LOX IMVI melanoma
NCI/ADR-RES ovarian = tested on: NCI/ADR-RES ovarian
K-562 leukemia = tested on: K-562 leukemia
NCI-H460 lung = tested on: NCI-H460 lung
OVCAR-5 ovarian = tested on: OVCAR-5 ovarian

Structure (SMILES)	GI50 (HT29 colon) [µM]	TGI (HT29 colon)	GI50 (UO-31 renal) [µM]	TGI (UO-31 renal)	GI50 (SK-MEL-28 melanoma) [µM]	TGI (SK-MEL-28 melanoma) [µM]	GI50 (LOX IMVI melanoma) [µM]	TGI (LOX IMVI melanoma) [µM]	GI50 (NCI/ADR-RES ovarian) [µM]	TGI (NCI/ADR-RES ovarian) [µM]	GI50 (K-562 leukemia) [µM]	TGI (K-562 leukemia) [µM]	GI50 (NCI-H460 lung)	TGI (NCI-H460 lung)	GI50 (OVCAR-5 ovarian) [µM]	TGI (OVCAR-5 ovarian) [µM]
OCc1ncc(-c2ccccc2)s1	> 100	> 100 µM	> 100	> 100 µM	> 100	> 100	> 100	> 100	> 100	> 100	> 100	> 100	> 100 µM	> 100 µM	> 100	> 100
CC(=O)N1N=C(c2ccc(Nc3nc(Nc4ccc(F)cc4)nc(Nc4ccc(Cl)cc4)n3)cc2)CC1c1ccc(N(C)C)cc1 (stereo unspecified)	3.58	> 75.9 µM	3.11	16.6 µM	11.7	40.1	3.85	12.8	1.65	15.7	> 32.4	> 81.9	6.68 µM	45 µM	14	43.6
Nc1cc(N)cc(Cc2ccccc2)c1	–	> 100 µM	–	> 100 µM	–	> 100	–	> 100	–	> 100	–	> 100	–	> 100 µM	–	> 100
COc1ccccc1Nc1nc2ccccc2c2occc12	–	–	14.7	24 µM	8.3	40.2	9.28	17.4	13.8	32.4	12.9	28	8.09 µM	18 µM	19.4	39.2
CCOC(=O)C(O)Cc1cnc2ccccc2n1 (stereo unspecified)	–	> 100 µM	–	> 100 µM	–	> 100	–	> 100	–	> 100	–	> 100	–	> 100 µM	–	> 100
CC(=O)OC1CC2(O)C(CCC3(C)C(c4ccc(=O)oc4)CCC32O)C2(C)CCC(OC3OC(CO)C(O)C(O)C3O)C=C12 (stereo unspecified)	0.045	0.381 µM	0.0182	0.0466 µM	0.049	0.231	0.0275	0.109	0.0172	0.0541	0.0295	0.175	< 0.01 µM	0.0282 µM	0.044	0.168
Cc1nc2ccccc2c(/C=C/c2ccccc2)c1C(=O)/C=C/c1ccc(Cl)cc1	0.9	6.36 µM	1.28	2.55 µM	–	–	1.23	2.49	1.81	4.88	0.868	4.87	1.51 µM	3.29 µM	–	–
Clc1ccc(N/N=C(\c2ccccc2)c2ccccn2)nc1	0.0364	> 37.2 µM and 10.8 µM	0.163	2.38 µM and 0.817 µM	0.335	> 100	0.246	4.48	0.109	–	0.0406	> 100	0.29 µM and 0.171 µM	> 39.9 µM and 13.6 µM	0.234	> 100
O=C1Nc2ccc(CN3CCOC3=O)cc2/C1=C/c1cc(CN2CCOCC2)c[nH]1	34.6	> 100 µM	21.5	> 94.7 µM	58	> 100	48.4	> 100	34.6	> 100	27.3	> 100	36.2 µM	> 100 µM	> 100	> 100
